Test results as given in patent US6358885B1, “Substituted phenylheterocyclic herbicides” (Mississippi State University, priority 1992, dated 2002).

Legend:
[1] = system: rape; experiment: Test B preemergence/postemergence greenhouse plant response rating 0 to 10; format: in vivo, Brassica napus; details: for Plant response rating, Rape: 0 to 10 scale
In short: (§1)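 Planted seeds are treated preemergence with compound dissolved in a non-phytotoxic solvent, while postemergence applications go onto plants of two to eighteen cm. Plants stay in the greenhouse twelve to sixteen days and are then rated visually relative to controls.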

[2] = system: wheat; experiment: as above; format: in vivo, Triticum aestivum; details: for Plant response rating, Wheat: 0 to 10 scale
In short: as §1

[3] = system: sorghum; experiment: as above; format: in vivo, Sorghum bicolor; details: for Plant response rating, Sorghum: 0 to 10 scale
In short: as §1

[4] = system: giant foxtail; experiment: Test C preemergence/postemergence greenhouse plant response rating 0 to 100; format: in vivo, Setaria faberii; details: for Plant response rating, Giant foxtail: 0 to 100 scale
In short: (§2)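 Compounds in non-phytotoxic solvent applied preemergence to sandy loam one day after planting, postemergence at the 1–4 leaf stage, or to ~2.5 cm floodwater over silt loam.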

[5] = system: chickweed; experiment: as above; format: in vivo, Stellaria media; details: for Plant response rating, Chickweed: 0 to 100 scale
In short: as §2

[6] = system: crabgrass; experiment: as above; format: in vivo, Digitaria sanguinalis; details: for Plant response rating, Crabgrass: 0 to 100 scale
In short: as §2

[7] = system: giant foxtail; experiment: Test B preemergence/postemergence greenhouse plant response rating 0 to 10; format: in vivo, Setaria faberii; details: for Plant response rating, Giant foxtail: 0 to 10 scale
In short: as §1

[8] = system: wild oat; experiment: Test C preemergence/postemergence greenhouse plant response rating 0 to 100; format: in vivo, Avena fatua; details: for Plant response rating, Wild oat: 0 to 100 scale
In short: as §2

[9] = system: rice; experiment: Test C flood test plant response rating 0 to 100; format: in vivo, Oryza sativa; details: for Plant response rating Rice Japonica: flood test species listed under POSTEMERGENCE, 0 to 100 scale
In short: as §2

[10] = system: barley; experiment: Test B preemergence/postemergence greenhouse plant response rating 0 to 10; format: in vivo, Hordeum vulgare; details: for Plant response rating, Barley: 0 to 10 scale
In short: as §1

[11] = system: chickweed; experiment: as above; format: in vivo, Stellaria media; details: PREEMERGENCE
In short: as §1

[12] = system: corn; experiment: as above; format: in vivo, Zea mays; details: for Plant response rating, Corn: 0 to 10 scale
In short: as §1

[13] = system: duck salad; experiment: Test C flood test plant response rating 0 to 100; format: in vivo, Heteranthera limosa; details: for Plant response rating Duck salad: flood test species listed under POSTEMERGENCE, 0 to 100 scale
In short: as §2

[14] = system: downy brome; experiment: Test C preemergence/postemergence greenhouse plant response rating 0 to 100; format: in vivo, Bromus tectorum; details: for Plant response rating Downy Brome: 0 to 100 scale
In short: as §2

[15] = system: bedstraw; experiment: as above; format: in vivo, Galium aparine; details: for Plant response rating, Bedstraw: 0 to 100 scale
In short: as §2

[16] = system: wild buckwheat; experiment: as above; format: in vivo, Polygonum convolvulus; details: for Plant response rating, Wild buckwheat: 0 to 100 scale
In short: as §2

[17] = system: barnyardgrass; experiment: Test B preemergence/postemergence greenhouse plant response rating 0 to 10; format: in vivo, Echinochloa crus-galli; details: for Plant response rating, Barnyardgrass: 0 to 10 scale
In short: as §1

[18] = system: crabgrass; experiment: as above; format: in vivo, Digitaria spp.; details: for Plant response rating, Crabgrass: 0 to 10 scale
In short: as §1

[19] = POSTEMERGENCE section, flood test, Rate 4 g/ha
[20] = Rate 16 g/ha, under POSTEMERGENCE head (flood test species)

C#CC(C)Oc1cc(-c2nn3c(c2Br)CCCC3)c(F)cc1Cl (stereo not drawn) [Compound 66]
Plant response rating, Rape ([1]; POSTEMERGENCE, Rate 50 g/ha): 10 | Plant response rating, Rape ([1]; PREEMERGENCE, Rate 50 g/ha): 1 | Plant response rating (0 to 10 scale), Rape ([1]; PREEMERGENCE, Rate 200 g/ha): 5 | Plant response rating, Rape ([1]; Rate 200 g/ha, POSTEMERGENCE): 10 | Plant response rating, Wheat ([2]; POSTEMERGENCE, Rate 50 g/ha): 5 | Plant response rating, Wheat ([2]; PREEMERGENCE, Rate 50 g/ha): 0 | Plant response rating (0 to 10 scale), Wheat ([2]; PREEMERGENCE, Rate 200 g/ha): 3 | Plant response rating, Wheat ([2]; Rate 200 g/ha, POSTEMERGENCE): 5 | Plant response rating, Sorghum ([3]; POSTEMERGENCE, Rate 50 g/ha): 5 | Plant response rating, Sorghum ([3]; PREEMERGENCE, Rate 50 g/ha): 0 | Plant response rating (0 to 10 scale), Sorghum ([3]; PREEMERGENCE, Rate 200 g/ha): 0 | Plant response rating, Sorghum ([3]; Rate 200 g/ha, POSTEMERGENCE): 7 | Plant response rating, Giant foxtail ([4]; POSTEMERGENCE, 62 g/ha): 70 | Plant response rating, Giant foxtail ([4]; POSTEMERGENCE, 250 g/ha): 90 | Plant response rating (0 to 100), Giant foxtail ([4]; POSTEMERGENCE, Rate 4 g/ha): 30 | Plant response rating, Giant foxtail ([4]; PREEMERGENCE, 62 g/ha): 20 | Plant response rating, Giant foxtail ([4]; PREEMERGENCE, 250 g/ha): 100 | Plant response rating (0 to 100), Giant foxtail ([4]; PREEMERGENCE, Rate 4 g/ha): 0 | Plant response rating (0 to 100), Giant foxtail ([4]; Rate 16 g/ha, POSTEMERGENCE): 50 | Plant response rating (0 to 100), Giant foxtail ([4]; Rate 16 g/ha, PREEMERGENCE): 0 | Plant response rating, Chickweed ([5]; POSTEMERGENCE, 62 g/ha): 95 | Plant response rating, Chickweed ([5]; POSTEMERGENCE, 250 g/ha): 100 | Plant response rating (0 to 100), Chickweed ([5]; POSTEMERGENCE, Rate 4 g/ha): 30 | Plant response rating, Chickweed ([5]; PREEMERGENCE, 62 g/ha): 50 | Plant response rating, Chickweed ([5]; PREEMERGENCE, 250 g/ha): 80 | Plant response rating (0 to 100), Chickweed ([5]; PREEMERGENCE, Rate 4 g/ha): 0 | Plant response rating (0 to 100), Chickweed ([5]; Rate 16 g/ha, POSTEMERGENCE): 70 | Plant response rating (0 to 100), Chickweed ([5]; Rate 16 g/ha, PREEMERGENCE): 0 | Plant response rating, Crabgrass ([6]; POSTEMERGENCE, 62 g/ha): 40 | Plant response rating, Crabgrass ([6]; POSTEMERGENCE, 250 g/ha): 50 | Plant response rating (0 to 100), Crabgrass ([6]; POSTEMERGENCE, Rate 4 g/ha): 10 | Plant response rating, Crabgrass ([6]; PREEMERGENCE, 62 g/ha): 50 | Plant response rating, Crabgrass ([6]; PREEMERGENCE, 250 g/ha): 100 | Plant response rating (0 to 100), Crabgrass ([6]; PREEMERGENCE, Rate 4 g/ha): 0 | Plant response rating (0 to 100), Crabgrass ([6]; Rate 16 g/ha, POSTEMERGENCE): 20 | Plant response rating (0 to 100), Crabgrass ([6]; Rate 16 g/ha, PREEMERGENCE): 0 | Plant response rating, Giant foxtail ([7]; POSTEMERGENCE, Rate 50 g/ha): 7 | Plant response rating, Giant foxtail ([7]; PREEMERGENCE, Rate 50 g/ha): 0 | Plant response rating (0 to 10 scale), Giant foxtail ([7]; PREEMERGENCE, Rate 200 g/ha): 6 | Plant response rating, Giant foxtail ([7]; Rate 200 g/ha, POSTEMERGENCE): 6 | Plant response rating, Wild oat ([8]; POSTEMERGENCE, 62 g/ha): 50 | Plant response rating, Wild oat ([8]; POSTEMERGENCE, 250 g/ha): 60 | Plant response rating (0 to 100), Wild oat ([8]; POSTEMERGENCE, Rate 4 g/ha): 10 | Plant response rating, Wild oat ([8]; PREEMERGENCE, 250 g/ha): 30 | Plant response rating (0 to 100), Wild oat ([8]; PREEMERGENCE, Rate 4 g/ha): 0 | Plant response rating (0 to 100), Wild oat ([8]; Rate 16 g/ha, POSTEMERGENCE): 20 | Plant response rating (0 to 100), Wild oat ([8]; Rate 16 g/ha, PREEMERGENCE): 0 | Plant response rating (0 to 100), Rice Japonica [9, 19]: 0 | Plant response rating (0 to 100), Rice Japonica [9, 20]: 0 | Plant response rating Rice Japonica ([9]; 62 g/ha): 10 | Plant response rating Rice Japonica ([9]; 250 g/ha): 25 | Plant response rating, Barley ([10]; POSTEMERGENCE, Rate 50 g/ha): 5 | Plant response rating, Barley ([10]; PREEMERGENCE, Rate 50 g/ha): 0 | Plant response rating (0 to 10 scale), Barley ([10]; PREEMERGENCE, Rate 200 g/ha): 2 | Plant response rating, Barley ([10]; Rate 200 g/ha, POSTEMERGENCE): 6 | Plant response rating, Chickweed ([11]; Rate 50 g/ha, 0 to 10 scale): 4 | Plant response rating (0 to 10 scale), Chickweed ([11]; Rate 200 g/ha): 5 | Plant response rating, Corn ([12]; POSTEMERGENCE, Rate 50 g/ha): 3 | Plant response rating, Corn ([12]; PREEMERGENCE, Rate 50 g/ha): 0 | Plant response rating (0 to 10 scale), Corn ([12]; PREEMERGENCE, Rate 200 g/ha): 0 | Plant response rating, Corn ([12]; Rate 200 g/ha, POSTEMERGENCE): 3 | Plant response rating (0 to 100), Duck salad [13, 19]: 0 | Plant response rating (0 to 100), Duck salad [13, 20]: 30 | Plant response rating Duck salad ([13]; 62 g/ha): 75 | Plant response rating Duck salad ([13]; 250 g/ha): 90 | Plant response rating Downy Brome ([14]; POSTEMERGENCE, 62 g/ha): 60 | Plant response rating Downy Brome ([14]; POSTEMERGENCE, 250 g/ha): 80 | Plant response rating (0 to 100), Downy Brome ([14]; POSTEMERGENCE, Rate 4 g/ha): 20 | Plant response rating Downy Brome ([14]; PREEMERGENCE, 62 g/ha): 30 | Plant response rating Downy Brome ([14]; PREEMERGENCE, 250 g/ha): 70 | Plant response rating (0 to 100), Downy Brome ([14]; PREEMERGENCE, Rate 4 g/ha): 0 | Plant response rating (0 to 100), Downy Brome ([14]; Rate 16 g/ha, POSTEMERGENCE): 40 | Plant response rating (0 to 100), Downy Brome ([14]; Rate 16 g/ha, PREEMERGENCE): 0 | Plant response rating, Bedstraw ([15]; POSTEMERGENCE, 62 g/ha): 100 | Plant response rating, Bedstraw ([15]; POSTEMERGENCE, 250 g/ha): 100 | Plant response rating (0 to 100), Bedstraw ([15]; POSTEMERGENCE, Rate 4 g/ha): 60 | Plant response rating, Bedstraw ([15]; PREEMERGENCE, 62 g/ha): 80 | Plant response rating, Bedstraw ([15]; PREEMERGENCE, 250 g/ha): 90 | Plant response rating (0 to 100), Bedstraw ([15]; PREEMERGENCE, Rate 4 g/ha): 0 | Plant response rating (0 to 100), Bedstraw ([15]; Rate 16 g/ha, POSTEMERGENCE): 85 | Plant response rating (0 to 100), Bedstraw ([15]; Rate 16 g/ha, PREEMERGENCE): 20 | Plant response rating, Wild buckwheat ([16]; POSTEMERGENCE, 62 g/ha): 100 | Plant response rating, Wild buckwheat ([16]; POSTEMERGENCE, 250 g/ha): 100 | Plant response rating (0 to 100), Wild buckwheat ([16]; POSTEMERGENCE, Rate 4 g/ha): 100 | Plant response rating, Wild buckwheat ([16]; PREEMERGENCE, 250 g/ha): 100 | Plant response rating (0 to 100), Wild buckwheat ([16]; PREEMERGENCE, Rate 4 g/ha): 0 | Plant response rating (0 to 100), Wild buckwheat ([16]; Rate 16 g/ha, POSTEMERGENCE): 100 | Plant response rating (0 to 100), Wild buckwheat ([16]; Rate 16 g/ha, PREEMERGENCE): 75 | Plant response rating, Barnyardgrass ([17]; POSTEMERGENCE, Rate 50 g/ha): 5 | Plant response rating, Barnyardgrass ([17]; PREEMERGENCE, Rate 50 g/ha): 0 | Plant response rating (0 to 10 scale), Barnyardgrass ([17]; PREEMERGENCE, Rate 200 g/ha): 7 | Plant response rating, Barnyardgrass ([17]; Rate 200 g/ha, POSTEMERGENCE): 9 | Plant response rating, Crabgrass ([18]; POSTEMERGENCE, Rate 50 g/ha): 4 | Plant response rating, Crabgrass ([18]; PREEMERGENCE, Rate 50 g/ha): 0 | Plant response rating (0 to 10 scale), Crabgrass ([18]; PREEMERGENCE, Rate 200 g/ha): 3 | Plant response rating, Crabgrass ([18]; Rate 200 g/ha, POSTEMERGENCE): 5
